Article PMC11423540, “Synthesis and biological evaluation of ortho-phenyl phenylhydroxamic acids containing phenothiazine with improved selectivity for class IIa histone deacetylases” (Journal of Enzyme Inhibition and Medicinal Chemistry, 2024)

Legend:
[1] = system: SCM-1 cells; test: Cell viability (MTT) assay, SCM-1; type: cell-based; conditions: human gastric cancer cells, read-out: IC50 of cytotoxicity SCM-1
From the text: (§1) Human breast cancer MDA-MB-231 cells and gastric cancer SCM-1 cells were purchased from the American Type Culture Collection (Manasas, VA, USA). SCC2095 human oral cancer cells were kindly provided by Professor Susan R. Mallery (The Ohio State University). Normal human lung fibroblasts (NHLFs; CC-2512) were purchased from the Lonza (Walkersville, MD, USA). SCM-1 cells were maintained in RPMI-1640 medium (Invitrogen, Carlsbad, CA, USA); MDA-MB-231 and SCC2095 cells were maintained in DMEM/F12 (Invitrogen); and NHLFs were maintained in FGM™-2 medium (Lonza) with 2% serum, supplemented with 10% heat-inactivated foetal bovine serum (FBS; Gibco, Grand Island, NY, USA). All cells were cultured at 37 °C in a humidified incubator containing 5% CO2 and 95% relative humidity.
(§2) To assess cell viability, cells were seeded in three replicates into 96-well plates at a density of 5×10^3/well for 24 h following incubation with compounds at the indicated concentrations. Then, cell viability was assessed with 3–(4,5-dimethylthiazol-2-yl)-2,5-diphenyltetrazolium bromide (MTT) solution (0.5 mg/mL) for 4h as described previously. After removing the medium, 200 µL of DMSO was added, and then the absorbance was measured at 570 nm using a plate reader (BMG LABTECH, Germany).

[2] = system: SCC2095 cells; test: Western blotting of caspase- and HDAC-related proteins; type: cell-based, human; conditions: western blot
Method: The protein expression was performed as previously described. Proteins were resolved on 10% SDS-PAGE, then transferred to PVDF (Bio-Rad) membranes. After blocking with 5% skimmed milk in PBS containing 0.1% Tween 20, the membranes were probed with primary antibodies against interest target proteins at 4 °C overnight. The following primary antibodies were used: […], cleaved caspase 9, acetyl α-tubulin, Hsp90, Histone H2A.X, p38, p-^180Thr/^182Tyr p38, PPARγ, and p21 were purchased from Cell Signalling Technologies (Beverly, MA, USA); pro-caspase 8, Millipore; β-actin, Sigma-Aldrich (St. Louis, MO, USA). Then, the immunoblots were washed and exposed to HRP-conjugated secondary antibodies at room temperature for 1 h. The immunoblots were examined by enhanced chemiluminescence.

[3] = Cell viability (MTT) assay, normal human lung fibroblasts; type: cell-based; conditions: normal human lung fibroblasts (NHLF, CC-2512); normal human lung fibroblast cells; read-out: IC50 of cytotoxicity against normal cells
From the text: as §1, §2

[4] = system: MDA-MB-231 cells; test: Cell viability (MTT) assay, MDA-MB-231; type: cell-based; conditions: human breast cancer cells, read-out: IC50 of cytotoxicity MDA-MB-231
From the text: as §1, §2

[5] = molecular target: HDAC4 (Homo sapiens, UniProt P56524); test: HDAC inhibition assay, HDAC4
HDAC4, sequence (P56524 whole entry): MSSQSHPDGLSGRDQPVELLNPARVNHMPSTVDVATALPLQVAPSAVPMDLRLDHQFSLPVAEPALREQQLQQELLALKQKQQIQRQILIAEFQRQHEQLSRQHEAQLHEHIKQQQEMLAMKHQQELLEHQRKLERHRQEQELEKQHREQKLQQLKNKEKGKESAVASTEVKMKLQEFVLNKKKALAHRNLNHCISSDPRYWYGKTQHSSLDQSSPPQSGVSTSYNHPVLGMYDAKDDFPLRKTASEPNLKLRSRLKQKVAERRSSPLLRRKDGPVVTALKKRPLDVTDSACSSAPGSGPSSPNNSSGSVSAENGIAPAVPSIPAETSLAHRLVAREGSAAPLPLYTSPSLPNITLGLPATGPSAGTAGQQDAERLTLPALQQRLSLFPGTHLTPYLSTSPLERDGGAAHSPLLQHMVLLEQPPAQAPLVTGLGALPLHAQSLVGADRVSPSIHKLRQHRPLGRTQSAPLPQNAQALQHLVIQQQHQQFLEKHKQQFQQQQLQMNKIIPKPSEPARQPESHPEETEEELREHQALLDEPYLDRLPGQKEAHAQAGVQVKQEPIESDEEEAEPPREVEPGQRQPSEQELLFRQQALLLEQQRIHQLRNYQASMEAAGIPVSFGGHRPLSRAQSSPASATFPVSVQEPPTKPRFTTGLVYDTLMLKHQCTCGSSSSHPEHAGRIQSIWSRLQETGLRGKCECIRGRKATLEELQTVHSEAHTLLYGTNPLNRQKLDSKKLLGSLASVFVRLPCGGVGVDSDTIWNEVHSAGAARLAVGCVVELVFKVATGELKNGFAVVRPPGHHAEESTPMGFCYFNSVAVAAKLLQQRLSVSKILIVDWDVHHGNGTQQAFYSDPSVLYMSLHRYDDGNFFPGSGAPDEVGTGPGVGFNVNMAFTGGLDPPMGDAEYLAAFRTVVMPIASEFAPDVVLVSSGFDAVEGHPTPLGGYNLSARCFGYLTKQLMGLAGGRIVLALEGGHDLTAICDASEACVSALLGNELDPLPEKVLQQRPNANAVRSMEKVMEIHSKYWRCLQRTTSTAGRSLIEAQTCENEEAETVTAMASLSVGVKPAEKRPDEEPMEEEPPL

[6] = molecular target: T1, HDAC6 (Homo sapiens, UniProt Q9UBN7); test: HDAC inhibition assay, HDAC6
T1 sequence (Q9UBN7 1-1215): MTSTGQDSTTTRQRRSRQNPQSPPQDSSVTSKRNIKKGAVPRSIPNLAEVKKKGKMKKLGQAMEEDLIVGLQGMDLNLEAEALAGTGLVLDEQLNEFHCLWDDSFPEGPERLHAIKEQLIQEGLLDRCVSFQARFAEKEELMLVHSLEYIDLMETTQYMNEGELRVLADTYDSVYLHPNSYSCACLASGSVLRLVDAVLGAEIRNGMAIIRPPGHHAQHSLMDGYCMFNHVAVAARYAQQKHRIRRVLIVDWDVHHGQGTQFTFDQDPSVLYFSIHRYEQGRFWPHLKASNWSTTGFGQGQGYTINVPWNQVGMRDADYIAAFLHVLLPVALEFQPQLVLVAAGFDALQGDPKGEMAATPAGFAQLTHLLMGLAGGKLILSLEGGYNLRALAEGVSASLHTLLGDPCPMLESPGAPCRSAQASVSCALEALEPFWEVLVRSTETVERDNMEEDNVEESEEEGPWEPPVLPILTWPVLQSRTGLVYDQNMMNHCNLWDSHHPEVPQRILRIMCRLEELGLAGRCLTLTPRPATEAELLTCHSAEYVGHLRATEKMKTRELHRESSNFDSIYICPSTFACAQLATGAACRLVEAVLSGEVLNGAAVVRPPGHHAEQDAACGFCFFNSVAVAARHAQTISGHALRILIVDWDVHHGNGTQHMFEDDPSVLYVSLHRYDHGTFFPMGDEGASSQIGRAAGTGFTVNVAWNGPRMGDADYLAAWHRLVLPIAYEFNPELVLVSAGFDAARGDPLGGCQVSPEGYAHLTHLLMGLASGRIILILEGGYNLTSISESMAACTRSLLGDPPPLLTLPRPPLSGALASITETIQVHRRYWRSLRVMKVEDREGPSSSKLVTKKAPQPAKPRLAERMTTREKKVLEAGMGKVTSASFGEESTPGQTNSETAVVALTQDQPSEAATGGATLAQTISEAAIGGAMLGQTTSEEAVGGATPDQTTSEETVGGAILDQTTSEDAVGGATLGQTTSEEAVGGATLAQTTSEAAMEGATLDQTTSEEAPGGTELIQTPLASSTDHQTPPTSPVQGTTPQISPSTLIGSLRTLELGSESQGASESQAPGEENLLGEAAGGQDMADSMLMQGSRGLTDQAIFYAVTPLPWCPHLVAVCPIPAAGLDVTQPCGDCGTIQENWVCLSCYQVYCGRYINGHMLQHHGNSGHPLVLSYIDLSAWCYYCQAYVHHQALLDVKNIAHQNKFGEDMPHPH

[7] = system: SCC2095 cells; test: Annexin V-FITC/PI flow cytometric apoptosis analysis; type: cell-based, human; conditions: for apoptosis rate: 48 h
Method: Cells (2 × 10^5) were treated with tested compounds in 6-well plates for 24 h or 48 h, then washed with ice-cold PBS twice and harvested with trypsin. Cells were incubated with 5 µL Annexin V- FITC/PI (BD Pharmingen, San Diego) for 15 min in the dark condition. Then, the cells were measured by BD FACSCanto flow cytometer (BD, Franklin Lakes, NJ). For ROS determination, DMSO or H2O2 or compound 7 g-treated cells were stained with the ROS probe (DCFH-DA; 5 µM) and detected the DCFH-DA fluorescence.

NC(=NO)c1ccc2c(c1)N(Cc1ccc(C(=O)NO)c(-c3ccccc3)c1)c1ccccc1S2 [Compound 7g, N-Hydroxy-4-[2-(N’-hydroxycarbamimidoyl)-10H-phenothiazin-10-yl]methyl-2-phenylbenzamide]
IC50 [1]: 5.8 ± 0.3 µM | levels of Hsp90 ([2]; SCC2095, 24 h): increased | levels of PPARγ ([2]; SCC2095, 24 h): increased | levels of cleaved caspase 9 ([2]; SCC2095, 24 h): up-regulated | levels of p21 ([2]; SCC2095, 24 h): increased | levels of pro-caspase 8 ([2]; SCC2095, 24 h): down-regulated | phosphorylation of Histone H2A.X ([2]; SCC2095, DNA damage biomarker): increased | phosphorylation of p38 ([2]; SCC2095, dose-dependent): up-regulated | IC50 [3]: 8 µM | IC50 [4]: 8.4 ± 2.7 µM | IC50 [5]: 0.18 ± 0.06 µM | IC50 [6]: 0.97 ± 0.05 µM | apoptosis rate ([7]; 1 µM): 29.2% | apoptosis rate ([7]; 2.5 µM): 35.9% | apoptosis rate ([7]; 5 µM): 44.4% | apoptosis rate ([7]; 7.5 µM): 78.2% | percentage of apoptotic cells ([7]; 10 µM, 24 h): 83.6% | apoptosis rate ([7]; 10 µM): 87.1%
